The values below come from patent publication US20250026759A1 (Merck Sharp & Dohme LLC, priority 2023, published 2025).

Molecules are shown by their SMILES.

This test has as its system PBMCs infected with VSV-G pseudotyped HIV virus (VSV-G/pNLG1-P2A-ΔEnv). As to the kind of experiment: cells. To be noted: Homo sapiens, PBMC, read-out: TACK EC50. The format is cell-based, human.
With `Cc1nn(C)c(=O)n1Cc1cc2c(cc1F)[C@@](C#CC1CC1)(C(F)(F)F)NC(=O)N2` [Example 32, (S)-4-(cyclopropylethynyl)-7-((1,3-dimethyl-5-oxo-1,5-dihydro-4H-1,2,4-triazol-4-yl)methyl)-6-fluoro-4-(trifluoromethyl)-3,4-dihydroquinazolin-2(1H)-one], the EC50 (commonly the concentration at which the effect is half-maximal) was 0.0144 µM.
With `Cc1n[nH]c(=O)n1Cc1cc2c(cc1F)[C@@](C#CC1CC1)(C(F)(F)F)NC(=O)N2` [Example 33, (S)-4-(cyclopropylethynyl)-6-fluoro-7-((3-methyl-5-oxo-1,5-dihydro-4H-1,2,4-triazol-4-yl)methyl)-4-(trifluoromethyl)-3,4-dihydroquinazolin-2(1H)-one] the figure was 0.0236 µM.
In the case of `O=C1Nc2cc(Cn3cn[nH]c3=O)c(F)cc2[C@@](C#CC2CC2)(C(F)(F)F)N1` [Example 34, (S)-4-(cyclopropylethynyl)-6-fluoro-7-((5-oxo-1,5-dihydro-4H-1,2,4-triazol-4-yl)methyl)-4-(trifluoromethyl)-3,4-dihydroquinazolin-2(1H)-one], the EC50 is 0.0446 µM.
With `CC(F)(F)[C@@]1(C#CC2CC2)NC(=O)Nc2cc(Cn3c(Cl)n[nH]c3=O)c(F)cc21` [Example 35, (S)-7-((3-chloro-5-oxo-1,5-dihydro-4H-1,2,4-triazol-4-yl)methyl)-4-(cyclopropylethynyl)-4-(1,1-difluoroethyl)-6-fluoro-3,4-dihydroquinazolin-2(1H)-one] the figure was 0.0109 µM; with `O=C1Nc2cc(Cn3c(Cl)n[nH]c3=O)c(F)cc2[C@@](C#CC2CC2)(C(F)(F)F)N1` [Example 36, (S)-7-((3-chloro-5-oxo-1,5-dihydro-4H-1,2,4-triazol-4-yl)methyl)-4-(cyclopropylethynyl)-6-fluoro-4-(trifluoromethyl)-3,4-dihydroquinazolin-2(1H)-one], 0.0133 µM; with `O=C1Nc2cc(Cn3c(C4CC4)n[nH]c3=O)c(F)cc2[C@@](C#CC2CC2)(C(F)(F)F)N1` [Example 37, (S)-7-((3-cyclopropyl-5-oxo-1,5-dihydro-4H-1,2,4-triazol-4-yl)methyl)-4-(cyclopropylethynyl)-6-fluoro-4-(trifluoromethyl)-3,4-dihydroquinazolin-2(1H)-one], 0.0429 µM.
With `Cc1n[nH]c(=O)n1Cc1cc2c(cc1F)[C@@](C#CC1CC1)(C(C)(F)F)NC(=O)N2` [Example 38, (S)-4-(cyclopropylethynyl)-4-(1,1-difluoroethyl)-6-fluoro-7-((3-methyl-5-oxo-1,5-dihydro-4H-1,2,4-triazol-4-yl)methyl)-3,4-dihydroquinazolin-2(1H)-one] the figure was 0.023 µM; with `O=C1Nc2cc(Cn3c(=O)[nH]c4cnccc43)c(F)cc2[C@@](C#CC2CC2)(C(F)(F)F)N1` [Example 39, (S)-4-(cyclopropylethynyl)-6-fluoro-7-((2-oxo-2,3-dihydro-1H-imidazo[4,5-c]pyridin-1-yl)methyl)-4-(trifluoromethyl)-3,4-dihydroquinazolin-2(1H)-one], 0.0137 µM; with `CC(F)(F)[C@@]1(C#CC2CC2)NC(=O)Nc2cc(Cn3ccc4c3C(=O)NC4)c(F)cc21` [Example 40, (S)-4-(cyclopropylethynyl)-4-(1,1-difluoroethyl)-6-fluoro-7-((6-oxo-5,6-dihydropyrrolo[3,4-b]pyrrol-1(4H)-yl)methyl)-3,4-dihydroquinazolin-2(1H)-one], 0.0059 µM.
In the case of `O=C1Nc2cc(Cn3c(=O)[nH]c4ccncc43)c(F)cc2[C@@](C#CC2CC2)(C(F)(F)F)N1` [Example 41, (S)-4-(cyclopropylethynyl)-6-fluoro-7-((2-oxo-1,2-dihydro-3H-imidazo[4,5-c]pyridin-3-yl)methyl)-4-(trifluoromethyl)-3,4-dihydroquinazolin-2(1H)-one] it was 0.0261 µM.
For the molecule `CN1C(=O)Nc2cc(CN3C(=O)CNC3=O)c(F)cc2[C@@]1(C#CC1CC1)C(F)(F)F` [Example 42, (S)-3-((4-(cyclopropylethynyl)-6-fluoro-3-methyl-2-oxo-4-(trifluoromethyl)-1,2,3,4-tetrahydroquinazolin-7-yl)methyl)imidazolidine-2,4-dione], the EC50 worked out at 0.0388 µM.
In the case of `CC(F)(F)[C@@]1(C#CC2CC2)NC(=O)Nc2cc(Cn3ccc(N)n3)c(F)cc21` [Example 43, (S)-7-((3-amino-1H-pyrazol-1-yl)methyl)-4-(cyclopropylethynyl)-4-(1,1-difluoroethyl)-6-fluoro-3,4-dihydroquinazolin-2(1H)-one] it was 0.0085 µM; in that of `Cc1cc(N)nn1Cc1cc2c(cc1F)[C@@](C#CC1CC1)(C(C)(F)F)NC(=O)N2` [Example 44, (S)-7-((3-amino-5-methyl-1H-pyrazol-1-yl)methyl)-4-(cyclopropylethynyl)-4-(1,1-difluoroethyl)-6-fluoro-3,4-dihydroquinazolin-2(1H)-one], 0.0195 µM.
With `Cc1cn(Cc2cc3c(cc2F)[C@@](C#CC2CC2)(C(C)(F)F)NC(=O)N3)nc1N` [Example 45, (S)-7-((3-amino-4-methyl-1H-pyrazol-1-yl)methyl)-4-(cyclopropylethynyl)-4-(1,1-difluoroethyl)-6-fluoro-3,4-dihydroquinazolin-2(1H)-one] the figure was 0.0131 µM; with `Nc1ccn(Cc2cc3c(cc2F)[C@@](C#CC2CC2)(C(F)(F)C2CC2)NC(=O)N3)n1` [Example 46, (S)-7-((3-amino-1H-pyrazol-1-yl)methyl)-4-(cyclopropyldifluoromethyl)-4-(cyclopropylethynyl)-6-fluoro-3,4-dihydroquinazolin-2(1H)-one], 0.0267 µM.
With `CC(F)(F)[C@@]1(C#CC2CC2)NC(=O)Nc2cc(Cn3ccc(CCO)n3)c(F)cc21` [Example 47, (S)-4-(cyclopropylethynyl)-4-(1,1-difluoroethyl)-6-fluoro-7-((3-(2-hydroxyethyl)-1H-pyrazol-1-yl)methyl)-3,4-dihydroquinazolin-2(1H)-one] the figure was 0.0377 µM; with `CC(F)(F)[C@@]1(C#CC2CC2)NC(=O)Nc2cc(Cn3ccc(CO)n3)c(Cl)cc21` [Example 48, (S)-6-chloro-4-(cyclopropylethynyl)-4-(1,1-difluoroethyl)-7-((3-(hydroxymethyl)-1H-pyrazol-1-yl)methyl)-3,4-dihydroquinazolin-2(1H)-one], 0.0296 µM.
As to `CC(F)(F)[C@@]1(C#CC2CC2)NC(=O)Nc2cc(Cn3ccnc3CO)c(F)cc21` [Example 49, (S)-4-(cyclopropylethynyl)-4-(1,1-difluoroethyl)-6-fluoro-7-((2-(hydroxymethyl)-1H-imidazol-1-yl)methyl)-3,4-dihydroquinazolin-2(1H)-one], the EC50 is 0.0418 µM.
With `CC(F)(F)[C@@]1(C#CC2CC2)NC(=O)Nc2cc(Cn3ccc(-c4cc[nH]n4)n3)c(F)cc21` [Example 52, (S)-7-(1H,1′H-[3,3′-bipyrazol]-1-ylmethyl)-4-(cyclopropylethynyl)-4-(1,1-difluoroethyl)-6-fluoro-3,4-dihydroquinazolin-2(1H)-one] the figure was 0.0283 µM.
As to `Cn1ccc(-c2ccn(Cc3cc4c(cc3F)[C@@](C#CC3CC3)(C(C)(F)F)NC(=O)N4)n2)n1` [Example 53, (S)-4-(cyclopropylethynyl)-4-(1,1-difluoroethyl)-6-fluoro-7-((1′-methyl-1H,1′H-[3,3′-bipyrazol]-1-yl)methyl)-3,4-dihydroquinazolin-2(1H)-one], the EC50 was determined as 0.0283 µM.
In the case of `COCc1ccn(Cc2cc3c(cc2F)[C@@](C#CC2CC2)(C(C)(F)F)NC(=O)N3)n1` [Example 54, (S)-4-(cyclopropylethynyl)-4-(1,1-difluoroethyl)-6-fluoro-7-((3-(methoxymethyl)-1H-pyrazol-1-yl)methyl)-3,4-dihydroquinazolin-2(1H)-one] it was 0.0335 µM; in that of `CC(F)(F)[C@@]1(C#CC2CC2)NC(=O)Nc2cc(Cn3cccn3)c(F)cc21` [Example 55, (S)-7-((1H-pyrazol-1-yl)methyl)-4-(cyclopropylethynyl)-4-(1,1-difluoroethyl)-6-fluoro-3,4-dihydroquinazolin-2(1H)-one], 0.0217 µM.
With `CC(F)(F)[C@@]1(C#CC2CC2)NC(=O)Nc2cc(Cn3ccnc3)c(F)cc21` [Example 56, (S)-7-((1H-imidazol-1-yl)methyl)-4-(cyclopropylethynyl)-4-(1,1-difluoroethyl)-6-fluoro-3,4-dihydroquinazolin-2(1H)-one] the figure was 0.028 µM; with `COc1ccn(Cc2cc3c(cc2F)[C@@](C#CC2CC2)(C(C)(F)F)NC(=O)N3)n1` [Example 57, (S)-4-(cyclopropylethynyl)-4-(1,1-difluoroethyl)-6-fluoro-7-((3-methoxy-1H-pyrazol-1-yl)methyl)-3,4-dihydroquinazolin-2(1H)-one], 0.0128 µM; with `CC(F)(F)[C@@]1(C#CC2CC2)NC(=O)Nc2cc(Cn3nc(N)cc3Cl)c(F)cc21` [Example 60, (S)-7-((3-amino-5-chloro-1H-pyrazol-1-yl)methyl)-4-(cyclopropylethynyl)-4-(1,1-difluoroethyl)-6-fluoro-3,4-dihydroquinazolin-2(1H)-one], 0.0289 µM.
`CC(F)(F)[C@@]1(C#CC2CC2)NC(=O)Nc2cc(Cn3[nH]c(=O)c4c3CCC4)c(F)cc21` [Example 61, (S)-4-(cyclopropylethynyl)-4-(1,1-difluoroethyl)-6-fluoro-7-((3-oxo-3,4,5,6-tetrahydrocyclopenta[c]pyrazol-1(2H)-yl)methyl)-3,4-dihydroquinazolin-2(1H)-one]: the EC50 amounted to 0.0306 µM.
Turning to `NC(=O)c1nccn1Cc1cc2c(cc1F)[C@@](C#CC1CC1)(C(F)(F)C1CC1)NC(=O)N2` [Example 62, (S)-1-((4-(cyclopropyldifluoromethyl)-4-(cyclopropylethynyl)-6-fluoro-2-oxo-1,2,3,4-tetrahydroquinazolin-7-yl)methyl)-1H-imidazole-2-carboxamide], the EC50 was determined as 0.0319 µM.
With `CC(F)(F)[C@@]1(C#CC2CC2)NC(=O)Nc2cc(Cn3ccc(OC(F)F)n3)c(F)cc21` [Example 63, (S)-4-(cyclopropylethynyl)-4-(1,1-difluoroethyl)-7-((3-(difluoromethoxy)-1H-pyrazol-1-yl)methyl)-6-fluoro-3,4-dihydroquinazolin-2(1H)-one] the figure was 0.0335 µM.
